Experiments:
Type in all cases: biochemical
[1] = tested on: Type IV PDE isolated from bovine tracheal smooth muscle; test: Type IV PDE activity, hydrolysis of [3H]-cyclic AMP; conditions: bovine tracheal smooth muscle enzyme; 0.2 μM cyclic AMP
Procedure: The Type IV PDE is isolated from bovine tracheal smooth muscle using a procedure similar to that previously described by Silver, P. J., et al.: Eur. J. Pharmacol. 150:85, 1988.(1). Eiiefly, smooth muscle from bovine trachea is minced and homogenized using a polytron in 10 volumes of an extraction buffer containing 10 mM Tris-acetate (pH 7.5), 2 mM magnesium chloride, 1 mM dithiothreitol and 2,000 units/ml of aprotinin. This and all subsequent procedures are performed at 0-4EC. The homogenate is sonicated and then centrifuged at 48,000×g for 30 minutes. The resulting supernatant is applied to a DEAE Trisacryl M column previously equilibrated with sodium acetate and dithiothreitol. After applications of the sample, the column is washed with sodium acetate/dithiothreitol, after which the different forms of PDE are eluted from the column using a linear Tris-HCl/NaCl gradient. Fractions containing Type IV PDE are collected, dialyzed and concentrated to 14% of the original volume. The concentrated fractions are diluted to 50% with ethylene glycol and stored at −20EC.
Enzyme activity is assessed by measuring the hydrolysis of [^3H]-cyclic AMP, as described by Thompson, W. J., et al.: Adv. Cyclic Nucleotide Res. 10:69, 1979. The cyclic AMP concentration used in this assay is 0.2 μM, which approximates to the Km value. Protein concentration is adjusted to ensure that no more than 15% of the available substrate is hydrolyzed during the incubation period.
All test compounds are dissolved in dimethyl sulfoxide (final concentration of 2.5%). This concentration of dimethyl sulfoxide inhibits enzyme activity by approximately 10%.
The compounds are tested over concentration range: 0.1, 1, 10, 100 uM (n=1), and IC50 determinations are made using 5 appropriate concentrations (n=2).

[2] = biological target: T1, Type III PDE isolated from human platelets (Homo sapiens, UniProt Q14432); test: Type III PDE activity, hydrolysis of [3H]-cyclic AMP; conditions: human platelet enzyme; 0.2 μM cyclic AMP
T1 construct: Fractions containing PDE III activity are pooled and dialyzed; from tissue; host or cells: human platelets (100,000 x g supernatant, DEAE-Trisacryl M fraction)
T1 sequence (Q14432 whole entry): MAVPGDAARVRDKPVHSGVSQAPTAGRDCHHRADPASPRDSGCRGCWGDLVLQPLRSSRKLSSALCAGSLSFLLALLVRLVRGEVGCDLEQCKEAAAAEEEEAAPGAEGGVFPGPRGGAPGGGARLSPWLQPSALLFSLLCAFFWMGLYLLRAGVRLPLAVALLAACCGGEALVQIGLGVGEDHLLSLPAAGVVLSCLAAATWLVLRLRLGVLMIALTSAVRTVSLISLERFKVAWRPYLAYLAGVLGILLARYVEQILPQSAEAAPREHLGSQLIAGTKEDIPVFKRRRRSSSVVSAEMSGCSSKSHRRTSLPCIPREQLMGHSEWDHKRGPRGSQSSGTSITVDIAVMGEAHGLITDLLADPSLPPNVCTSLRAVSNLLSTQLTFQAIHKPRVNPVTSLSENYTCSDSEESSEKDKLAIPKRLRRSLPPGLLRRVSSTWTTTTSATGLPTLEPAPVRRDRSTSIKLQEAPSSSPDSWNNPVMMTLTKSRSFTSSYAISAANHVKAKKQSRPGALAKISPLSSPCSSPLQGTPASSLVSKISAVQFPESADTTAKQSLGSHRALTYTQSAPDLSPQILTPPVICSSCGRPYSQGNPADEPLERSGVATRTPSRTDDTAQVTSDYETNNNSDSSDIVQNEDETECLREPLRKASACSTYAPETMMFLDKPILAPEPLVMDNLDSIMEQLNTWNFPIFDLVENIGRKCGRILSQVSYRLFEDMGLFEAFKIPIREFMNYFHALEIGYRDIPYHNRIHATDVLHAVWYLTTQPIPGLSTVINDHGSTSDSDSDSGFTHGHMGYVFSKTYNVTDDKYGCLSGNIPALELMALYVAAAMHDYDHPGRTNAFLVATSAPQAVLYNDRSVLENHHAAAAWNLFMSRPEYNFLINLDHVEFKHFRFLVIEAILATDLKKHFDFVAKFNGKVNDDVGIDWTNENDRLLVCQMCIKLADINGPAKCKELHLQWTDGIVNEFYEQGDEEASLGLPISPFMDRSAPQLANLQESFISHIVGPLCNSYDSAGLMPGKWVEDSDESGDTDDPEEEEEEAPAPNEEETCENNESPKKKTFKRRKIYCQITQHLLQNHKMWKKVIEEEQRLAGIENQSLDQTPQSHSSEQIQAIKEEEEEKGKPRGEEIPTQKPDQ
Procedure: After application of the sample, the column is washed with several bed volumes of buffer B, after which the different forms of PDE are eluted from the column using two successive linear NaCl gradients (0.05-0.15 M, 300 ml total; 0.15-0.40 M, 200 ml total). Five milliliter fractions are collected and assayed for cyclic AMP and cyclic GMP PDE activity.

[3] = biological target: T2, Type V PDE isolated from platelets (Homo sapiens, UniProt O76074); test: Type V PDE activity, hydrolysis of [3H]-cyclic GMP; conditions: platelet enzyme; 0.2 uM cyclic GMP
T2 construct: Fractions that contain PDE V are pooled and dialyzed overnight; from tissue; host or cells: platelets (supernatant, DEAE-Trisacryl M fraction)
Procedure: Briefly, 1-2 units of platelets are suspended in an equal volume of buffer A (20 mM Tris-HCl, pH 7.5, containing 2 mM magnesium acetate, 1 mM dithiothreitol, and 5 mM Na2EDTA) using a polytron. The proteinase inhibitor phenylmethylsulfonyl fluoride (PMSF) are also included in this buffer at a final concentration of 200 uM. […] The homogenate is then centrifuged at 100,000 rpm for 60 minutes. The supernatant is then removed and filtered through four layers of gauze and applied to a DEAE-Trisacryl M column. The column is washed with several bed volumes of buffer B (20 mM Tris-HCl, pH 7.5, containing 2 mM magnesium acetate, 1 mM diothiothreitol, and […] PMSF) and eluted by two successive linear NaCl gradients (0.05-0.15 M, 300 ml total; 0.15-0.40 M, 200 ml total). Five ml fractions are collected and assayed for cyclic AMP and cyclic GMP PDE activity. Fractions that contain PDE V are pooled and dialyzed overnight against 4 L of buffer C (20 mM Tris-HCl, pH 7.5, containing 2 mM magnesium acetate and proteinase inhibitors). […] PDE V can typically be retained for up to four weeks with little or no loss of activity.
The reference Type V PDE inhibitor zaprinast is evaluated with each assay.

Compound	IC50 [1]	IC50 [2]	IC50 [3]
CC(C)(C)c1cc(Cc2nc3cc(Cl)cc(C#Cc4ccccn4)c3o2)cc(C(C)(C)C)c1O [Example 1, 5-chloro-2-(3,5-di-t-butyl-4-hydroxy-benzyl)-7-(2-(2-pyridyl)-ethynyl)-benzoxazole]	13 nM		
CC(C)(C)c1cc(Cc2nc3cccc(C#Cc4ccccn4)c3o2)cc(C(C)(C)C)c1O [Example 2]	700 nM		
CC(C)(C)c1cc(Cc2nc3cc(Cl)cc(C#Cc4nccs4)c3o2)cc(C(C)(C)C)c1O [Example 3, 5-chloro-2-(3,5-di-t-butyl-4-hydroxy-benzyl)-7-(2-(2-thiazolyl)-ethynyl)-benzoxazole]	14 nM		
CC(C)(C)c1cc(Cc2nc3cc(Cl)cc(C#CCO)c3o2)cc(C(C)(C)C)c1O [Example 4, 3-(5-chloro-2-(4-hydroxy-3,5-bis((1,1-dimethyl)ethyl)benzyl)benzoxazol-7-yl)prop-2-yn-1-ol]	420 nM	> 300000 nM	19500 nM
COc1ccc(C2CNC(=O)C2)cc1OC1CCCC1 (centres unmarked) [Rolipram, reference compound]	3700 nM		
Cn1c(=O)c2[nH]cnc2n(C)c1=O [Theophylline, reference compound]	321000 nM		

Source: patent US6365606B1, “6,5-fused aromatic ring systems having enhanced phosphodiesterase IV inhibitory activity” (Euro-Celtique, S.A., priority 1996, dated 2002)
